# Source: ChEMBL document CHEMBL3603754, “Mitochondria and DNA Targeting of 5,10,15,20-Tetrakis(7-sulfonatobenzo[b]thiophene) Porphyrin-Induced Photodynamic Therapy via Intrinsic and Extrinsic Apoptotic Cell Death” (J Med Chem, 2015)
# Active and inactive are the calls of the source. No cut-off for these calls is given here.
# What was measured:
# MCF7 [1] = experiment: Dark toxicity in human MCF7 cells up to 40 uM after 24 hrs by MTT assay; assay type: cell-based; details: mcf7, 24 h
# MCF7 [2] = experiment: Photo-toxicity in human MCF7 cells treated for 24 hrs followed by irradiated with 660 nm of diode laser light at 50mW for 30 mins measured after 24 hrs by MTT assay; assay type: functional, cell-based; details: MCF7, light or radiation study
# [3] = Intracellular uptake in human MCF7 cell mitochondria at 10 uM after 4 hrs using Hoechst staining by fluorescence microscopic analysis; assay type: ADME; details: mcf7, 4 h
# [4] = Intracellular uptake in human MCF7 cell nucleus at 10 uM after 4 hrs using Hoechst staining by fluorescence microscopic analysis; assay type: ADME, cell-based; details: mcf7, 4 h
# [5] = Intracellular uptake in human MCF7 cell mitochondria at 10 uM after 4 hrs using mitotracker green staining by fluorescence microscopic analysis; assay type: ADME; details: mcf7, 4 h
# [6] = Intracellular uptake in human MCF7 cell F-actin filament at 10 uM after 4 hrs using Hoechst staining by fluorescence microscopic analysis; assay type: ADME, cell-based; details: mcf7, 4 h
# [7] = Intracellular uptake in human MCF7 cell lysosomes at 10 uM after 4 hrs using Hoechst staining by fluorescence microscopic analysis; assay type: ADME, cell-based, Lysosome; details: mcf7, 4 h
# MCF7 [8] = experiment: Cellular uptake in human MCF7 cells assessed as increase of intracellular fluorescence after 20 mins using alexa fluor 488, phalloidin 488/525, mito-tracker 490/516 staining by fluorescence microscopic analysis; assay type: ADME, cell-based; details: mcf7, 20 min
# MCF7 [9] = experiment: Cellular uptake in human MCF7 cells assessed as increase of intracellular fluorescence up to 60 mins using alexa fluor 488, phalloidin 488/525, mito-tracker 490/516 staining by fluorescence microscopic analysis; assay type: ADME, cell-based; details: mcf7, 1 h
# MCF7 [10] = experiment: Cellular uptake in human MCF7 cells assessed as increase of intracellular fluorescence after 1 hr using alexa fluor 488, phalloidin 488/525, mito-tracker 490/516 staining by FACS analysis relative to control; assay type: ADME, cell-based; details: mcf7, 1 h
# MCF7 [11] = experiment: Induction of ROS production in human MCF7 cells treated for 1 hr followed by irradiated with 660 nm of diode laser light at 50mW for 30 mins using DCFDA by fluorescence microscopic analysis; assay type: functional, cell-based
# MCF7 [12] = experiment: Induction of mitochondrial membrane disruption in human MCF7 cells assessed as calcein-AM accumulation in mitochondria at 1 to 3 uM treated for 1 hr followed by irradiated with 660 nm of diode laser light at 50mW for 30 mins measured after 45 mins by fluorescence assay; assay type: functional, cell-based
# MCF7 [13] = experiment: Induction of mitochondrial membrane disruption in human MCF7 cells assessed as calcein-AM accumulation in cytosol treated for 1 hr followed by irradiated with 660 nm of diode laser light at 50mW for 30 mins measured after 45 mins by fluorescence assay; assay type: functional, cell-based
# MCF7 [14] = experiment: Induction of mitochondrial membrane disruption in human MCF7 cells assessed as calcein-AM accumulation in mitochondria treated for 1 hr followed by irradiated with 660 nm of diode laser light at 50mW for 30 mins measured after 45 mins by fluorescence assay; assay type: functional, cell-based
# MCF7 [15] = experiment: Induction of extrinsic apoptosis in human MCF7 cells assessed as increase of casepase-3 level at 3 to 5 uM treated for 1 hr followed by irradiated with 660 nm of diode laser light at 50mW for 30 mins measured after 45 mins using (z-DEVD)2-Magic Red by fluorescence assay; assay type: functional, cell-based
# MCF7 [16] = experiment: (§1) Induction of intrinsic apoptosis in human MCF7 cells assessed as increase of casepase-9 level at 3 to 5 uM treated for 1 hr followed by irradiated with 660 nm of diode laser light at 50mW for 30 mins measured after 45 mins using (Ac-LEHD)2-Rh110 by fluorescence assay; assay type: functional, cell-based
# MCF7 [17] = experiment: Induction of extrinsic apoptosis in human MCF7 cells assessed as increase of casepase-3 level at 5 uM treated for 1 hr followed by irradiated with 660 nm of diode laser light at 50mW for 30 mins measured after 45 mins using (z-DEVD)2-Magic Red by fluorescence assay; assay type: functional, cell-based
# MCF7 [18] = experiment: as §1, with “assay in presence of caspase-2 inhibitor” for “assay”; assay type: functional, cell-based
# MCF7 [19] = experiment: Induction of extrinsic apoptosis in human MCF7 cells assessed as increase of casepase-3 level at 5 uM treated for 1 hr followed by irradiated with 660 nm of diode laser light at 50mW for 30 mins measured after 45 mins using (z-DEVD)2-Magic Red by fluorescence assay in presence of caspase-2 inhibitor; assay type: functional, cell-based
# MCF7 [20] = experiment: (§2) Induction of extrinsic apoptosis in human MCF7 cells assessed as increase of […] level at 6 uM treated for 1 hr followed by irradiated with 660 nm of diode laser light at 50mW for 30 mins measured after 45 mins using (z-IETD)2-Rh110 by fluorescence assay; assay type: functional, cell-based
# MCF7 [21] = experiment: (§3) Induction of extrinsic apoptosis in human MCF7 cells assessed as increase of casepase-3 level at 6 uM treated for 1 hr followed by irradiated with 660 nm of diode laser light at 50mW for 30 mins measured after 45 mins using (z-DEVD)2-Magic Red by fluorescence assay; assay type: functional, cell-based
# MCF7 [22] = experiment: as §2, with “assay in presence of caspase-8 inhibitor Z-IETD-FMK” for “assay”; assay type: functional, cell-based
# MCF7 [23] = experiment: as §3, with “assay in presence of caspase-8 inhibitor Z-IETD-FMK” for “assay”; assay type: functional, cell-based
# MCF7 [24] = experiment: Induction of DNA fragmentation in human MCF7 cell nucleus treated at 5 uM followed by irradiated with 660 nm of diode laser light at 50mW for 30 mins by DNA ladder assay; assay type: functional, cell-based
compound,measurement,setting,value
O=S(=O)([O-])c1cccc2cc(-c3c4nc(c(-c5cc6cccc(S(=O)(=O)[O-])c6s5)c5ccc([nH]5)c(-c5cc6cccc(S(=O)(=O)[O-])c6s5)c5nc(c(-c6cc7cccc(S(=O)(=O)[O-])c7s6)c6ccc3[nH]6)C=C5)C=C4)sc12.[Na+].[Na+].[Na+].[Na+],Activity,MCF7 [1],Non-toxic
same,IC50,MCF7 [2],5 µM
same,Drug uptake,[3],Active
same,Drug uptake,[4],Active
same,Drug uptake,[5],Active
same,Drug uptake,[6],Not Active
same,Drug uptake,[7],Not Active
same,Drug uptake,MCF7 [8],Active
same,Drug uptake,MCF7 [9],Active
same,fold change (FC),MCF7 [10],3
same,Activity,MCF7 [11],Dose-dependent effect
same,Activity,MCF7 [12],Active
same,Activity,MCF7 [13],Dose-dependent effect
same,Activity,MCF7 [14],Dose-dependent effect
same,Activity,MCF7 [15],Active
same,Activity,MCF7 [16],Active
same,Activity,MCF7 [17],Active
same,Activity,MCF7 [18],inactive
same,Activity,MCF7 [19],inactive
same,Activity,MCF7 [20],Active
same,Activity,MCF7 [21],Active
same,Activity,MCF7 [22],inactive
same,Activity,MCF7 [23],inactive
same,Activity,MCF7 [24],Active
O=S(=O)(O)c1ccc(-c2c3nc(c(-c4ccc(S(=O)(=O)O)cc4)c4ccc([nH]4)c(-c4ccc(S(=O)(=O)O)cc4)c4nc(c(-c5ccc(S(=O)(=O)O)cc5)c5ccc2[nH]5)C=C4)C=C3)cc1,IC50,MCF7 [2],11.8 µM
same,Drug uptake,[7],Active
